Experimental data taken from patent US6555533B2, “Use of certain substituted caprolactams in treating tumors” (Novartis AG, priority 1998, dated 2003).
Like-named read-outs stand apart in the source and are kept apart here. Marks after values point to notes of the source that are not given here.

Experiments:
[1] = test system: MDA-MB-435 breast carcinoma; assay: Anchorage Dependent Growth Monolayer Assay (ADGMA), MDA-MB-435; format: cell-based, human; conditions: 3-day exposure, MTS readout, read-out: IC50 (average±S.D.) MDA-MB-435
Experimental: As indicated above, all of the compounds of formula I, and their corresponding pharmaceutically acceptable acid addition salts, are anti-tumor agents and are, therefore, useful in inhibiting the growth of various lymphomas, sarcomas, carcinomas, myelomas, and leukemia cell lines.
The ADGMA compares the number of viable cells following a 3-day exposure to a test compound relative to a number of cells present at the time the test compound was added. […] The absorbance at 490 nm (A490) of the formazan derivative is proportional to the number of viable cells. The IC50 for a test compound is the concentration of compound required to reduce the final cell number to 50% of the final control cell number. If cell proliferation is inhibited, the assay further defines compounds as cytostatic (cell number after 3-day compound incubation >cell number at time of compound addition) or cytotoxic (cell number after 3-day compound incubation <cell number at time of compound addition).
The MDA-MB-435 breast carcinoma line was obtained from the American Type Culture Collection (ATCC) and used between passages 4-20 following thawing. MDA-MB-435 breast carcinoma was maintained and plated in DME/F12 medium containing 10% fetal bovine serum, 15 mM HEPES (pH=7.4), 100 units/mL penicillin, and 100 μg/mL streptomycin.
Cell lines are trypsinized and counted using a Coulter counter to determine plating densities. Cells are then plated in their respective maintenance media (100 μL/well) in 96 well plates at the following densities: MDA-MB-435, 3,000 cells/well; A549 and HCT-116, 700 cells/well; are PC-3, 2500 cells/well. The number of cells plates as determined in preliminary experiments, results in cell densities of 75-90% of confluency by 4 days after plating. Initial cell densities, assayed one day after plating, are roughly 0.15-0.20 absorbance units greater than the media blank. Ninety-six well plates are seeded on day 0 and the test compounds are added on day 1. A control plate is created for each cell line that receives media only in row A and cells in row B. One day following plating, test compounds are added (in a final volume of 100 μL) to the test plates. Control plates receive 10 μL MTS mixture (prepared fresh on day of addition to cell plates at a ratio of 10 μL of a 0.92 mg/mL solution of PMS to a 190 μL of a 2 mg/mL solution of MTS) and 100 μL media. A490 of control plates is read 4 h after MTS addition to determine initial cell density values for each cell line. Three days after addition of test compound, 10 μL/well of MTS mixture is added to the test plates and A490 is read 4 h later. A490 values for wells containing cells are corrected for media absorbance, then normalized to initial density readings to determine percent net growth. IC50 values are determined from graphs of percent net growth as a function of compound concentration. Percent net growth is calculated as (Cell+Drug A490−Initial A490/Cell+Drug Vehicle A490−Initial A490).

[2] = test system: MDA-MB-435 tumor xenografts; assay: MDA-MB-435 breast carcinoma xenograft model; format: in vivo, athymic (nu/nu) mice
Experimental: Positive controls are carried out with doxorubicin administered 3 times per week i.v.
The following results were obtained for compounds of Ex.1-Ex.12 tested against MDA-MB-435 tumor xenografts 3×/week for 3 weeks: […]

PC-3 tumor xenografts = assay: PC-3 prostate carcinoma xenograft model; format: in vivo, athymic (nu/nu) mice; conditions: 15 mg/kg i.v. daily for the first five days (positive control)
A549 tumor xenografts = test system: A549 tumor xenografts
Source text: Utilizing this model, one can measure the ability of test compounds to inhibit the growth of human tumor xenografts growing subcutaneously (s.c.) in athymic nude mice. The histologic tumor types employed were MDA-MB-435 breast, A549 non-small cell lung, HCT-116 colon and PC-3 prostate carcinomas.
A549 non-small cell lung carcinoma xenograft model: Briefly, 10 million cells were implanted s.c. into the right flank of athymic (nu/nu) mice, and were allowed to grow until a mass of approximately 120 mm^3 was established. The test compounds are administered three times per week intravenously (i.v.) for three weeks in 5% dextrose, 10%DMSO in water. The test compounds are administered in dose-response fashion in order to evaluate and document the full potential range of activity (efficacy and toxicity) for a given compound. Positive controls are carried out with mitomycin C administered 3 times per week intraperitioneally (i.p.).
Toxicity was monitored by recording average group body weights twice weekly, and by daily observation of general health. Efficacy was monitored by taking measurements of tumor length, width, and depth weekly using digital calipers coupled to automated data collectors. Mean tumor volume (MTV) at initiation of therapy was subtracted from final MTV in order to express the actual tumor growth during treatment (ΔMTV). Anti-tumor activity was expressed as %T/C (ΔMTV of treated group÷ΔMTV of control group×100). Regressions were calculated using the formula: (T/T0−1)×100%, where T is the tumor volume for the treatment group at the end of the experiment, and T0 is the tumor volume at the beginning of the experiment. Statistical significance was evaluated using a one-tailed Student's t-test (p<0.05).

HCT-116 tumor xenografts = assay: HCT-116 colon carcinoma xenograft model; format: in vivo, athymic (nu/nu) mice; conditions: 75 mg/kg i.v. 1 time per week (positive control)
Experimental: Positive controls are carried out with 5-fluorouracil administered 1 time per week i.v.

[3] = 10 μmol/kg i.v. 3×/week for 3 weeks
[4] = 33 μmol/kg i.v. 3×/week for 3 weeks
[5] = 2 mg/kg i.p. 3 times per week (positive control)

SMILES: CCCCCCCCCCOc1ccc(C(=O)O[C@@H]2CC[C@H](NC(=O)[C@H](OC)[C@H](O)[C@@H](O)[C@H](O)/C=C/C(C)(C)C)C(=O)NC2)cc1 [Ex. 10, (2R, 3R, 4S, 5R, 6E)-3,4,5-Trihydroxy-2-methoxy-8,8-dimethyl-N-[(3S, 6R)-hexahydro-2-oxo-6-([4-n-decyloxyphenyl]carbonyl)oxy-2H-azepin-3-yl]non-6-enamide]
- IC50 ([1]; Homo sapiens, MDA-MB-435, 72 h): 6 ± 4 nM
- % T/C [2, 3]: 64* %
- Dead/Total [2, 3]: 0/8
- % T/C [2, 4]: 2* %
- Dead/Total [2, 4]: 0/8
- Δ MTV [2, 4]: 4 mm^3

SMILES: CO[C@@H](C(=O)N[C@H]1CC[C@@H](OC(=O)CC2CCCCC2)CNC1=O)[C@H](O)[C@@H](O)[C@H](O)/C=C/C(C)(C)C [Ex. 6, (2R, 3R, 4S, 5R, 6E)-3,4,5-Trihydroxy-2-methoxy-8,8-dimethyl-N-[(3S, 6R)-hexahydro-2-oxo-6-(cyclohexylmethylcarbonyl)oxy-2H-azepin-3-yl]non-6-enamide]
- % T/C [2, 3]: 47* %
- Dead/Total [2, 3]: 0/8
- % T/C [2, 4]: 34* %
- Dead/Total [2, 4]: 0/8

SMILES: CO[C@@H](C(=O)N[C@H]1CC[C@@H](OC(=O)Cc2ccccc2)CNC1=O)[C@H](O)[C@@H](O)[C@H](O)/C=C/C(C)(C)C [Ex. 7, (2R, 3R, 4S, 5R, 6E)-3,4,5-Trihydroxy-2-methoxy-8,8-dimethyl-N-[(3S, 6R)-hexahydro-2-oxo-6-(1-oxo-2-phenylethoxy)-2H-azepin-3-yl]non-6-enamide.]
- IC50 [1]: 262 ± 70 nM
- % T/C [2, 3]: 72%
- Dead/Total [2, 3]: 0/8
- % T/C [2, 4]: 43* %
- Dead/Total [2, 4]: 0/8

SMILES: CCCCCCCCCCc1ccc(C(=O)O[C@@H]2CC[C@H](NC(=O)[C@H](OC)[C@H](O)[C@@H](O)[C@H](O)/C=C/C(C)(C)C)C(=O)NC2)cc1 [Ex. 12, (2R, 3R, 4S, 5R, 6E)-3,4,5-Trihydroxy-2-methoxy-8,8-dimethyl-N-[(3S, 6R)-hexahydro-2-oxo-6-([4-n-decylphenyl]carbonyl)oxy-2H-azepin-3-yl]non-6-enamide]
- IC50 ([1]; Homo sapiens, MDA-MB-435, 72 h): 27 ± 37 nM
- % T/C [2, 3]: 52%
- Dead/Total [2, 3]: 0/8
- % T/C [2, 4]: 7* %
- Dead/Total [2, 4]: 0/8

SMILES: CO[C@@H](C(=O)N[C@H]1CC[C@@H](OC(=O)Cc2ccc(Cl)c(Cl)c2)CNC1=O)[C@H](O)[C@@H](O)[C@H](O)/C=C/C(C)(C)C [Ex. 8, (2R, 3R, 4S, 5R, 6E)-3,4,5-Trihydroxy-2-methoxy-8,8-dimethyl-N-[(3S, 6R)-hexahydro-2-oxo-6-(1-oxo-2-[3,4-dichlorophenyl]ethoxy)-2H-azepin-3-yl]non-6-enamide]
- % T/C [2, 3]: 62%
- Dead/Total [2, 3]: 0/8
- % T/C [2, 4]: 67%
- Dead/Total [2, 4]: 0/8

SMILES: CC(=O)O[C@H]1C(=O)[C@@]2(C)[C@H]([C@H](OC(=O)c3ccccc3)[C@]3(O)C[C@H](OC(=O)[C@H](O)[C@@H](NC(=O)c4ccccc4)c4ccccc4)C(C)=C1C3(C)C)[C@]1(OC(C)=O)CO[C@@H]1C[C@@H]2O [Paclitaxel, reference compound]
- % regression (PC-3 tumor xenografts): 100 regression* %
- Dead/Total (PC-3 tumor xenografts): 3/8
- Δ MTV (PC-3 tumor xenografts): −103 mm^3

SMILES: CO[C@@]12[C@H](COC(N)=O)C3=C(C(=O)C(C)=C(N)C3=O)N1C[C@@H]1N[C@@H]12 [Mitomycin C, reference compound]
- % T/C (A549 tumor xenografts; [5]): 20* %
- Δ MTV (A549 tumor xenografts; [5]): 15 mm^3
- Dead/Total (A549 tumor xenografts; mouse, in vivo): 0/8

SMILES: CO[C@@H](C(=O)N[C@H]1CC[C@@H](OC(=O)/C=C/c2ccccc2)CNC1=O)[C@H](O)[C@@H](O)[C@H](O)/C=C/C(C)(C)C [Ex. 11, (2R, 3R, 4S, 5R, 6E)-3,4,5-Trihydroxy-2-methoxy-8,8-dimethyl-N-[(3S, 6R)-hexahydro-2-oxo-6-(1-oxo-3-phenyl-2-propenoxy)-2H-azepin-3-yl]non-6-enamide]
- Dead/Total [2, 3]: 0/8
- Δ MTV [2, 3]: 135 mm^3
- Dead/Total [2, 4]: 0/8
- Δ MTV [2, 4]: 76 mm^3

SMILES: O=c1[nH]cc(F)c(=O)[nH]1 [5-fluorouracil, reference compound]
- % T/C (HCT-116 tumor xenografts): 16* %
- Dead/Total (HCT-116 tumor xenografts): 0/8
- Δ MTV (HCT-116 tumor xenografts): 65 mm^3

SMILES: CO[C@@H](C(=O)N[C@H]1CC[C@@H](OC(=O)C2CCCCCC2)CNC1=O)[C@H](O)[C@@H](O)[C@H](O)/C=C/C(C)(C)C [Ex. 3, (2R, 3R, 4S, 5R, 6E)-3,4,5-Trihydroxy-2-methoxy-8,8-dimethyl-N-[(3S, 6R)-hexahydro-2-oxo-6(cylohpetylcarbonyl)oxy-2H-azepin-3-yl]non-6-enamide]
- IC50 [1]: 32 ± 14 nM
- % T/C [2, 3]: 39* %
- Dead/Total [2, 3]: 0/8
- % T/C [2, 4]: 28* %
- Dead/Total [2, 4]: 0/8

SMILES: CO[C@@H](C(=O)N[C@H]1CC[C@@H](OC(=O)Cc2c[nH]c3ccccc23)CNC1=O)[C@H](O)[C@@H](O)[C@H](O)/C=C/C(C)(C)C [Ex. 14, (2R, 3R, 4S, 5R, 6E)-3,4,5-Trihydroxy-2-methoxy-8,8-dimethyl-N-[(3S, 6R)-hexahydro-2-oxo-6-(1-oxo-3-[3-indolyl]ethoxy)-2H-azepin-3-yl]non-6-enamide]
- IC50 [1]: 1240 ± 196 nM

SMILES: COc1ccc(CC(=O)O[C@@H]2CC[C@H](NC(=O)[C@H](OC)[C@H](O)[C@@H](O)[C@H](O)/C=C/C(C)(C)C)C(=O)NC2)cc1 [Ex. 9, (2R, 3R, 4S, 5R, 6E)-3,4,5-Trihydroxy-2-methoxy-8,8-dimethyl-N-[(3S, 6R)-hexahydro-2-oxo-6-(1-oxo-2-[4-methoxyphenyl]ethoxy)-2H-azepin-3-yl]non-6-enamide]
- % T/C [2, 3]: 76%
- Dead/Total [2, 3]: 0/8
- % T/C [2, 4]: 48* %
- Dead/Total [2, 4]: 0/8
